# Data reported in ChEMBL document CHEMBL4602729, “O-Alkyl Hydroxamates Display Potent and Selective Antileishmanial Activity” (J Med Chem, 2020).
# Activity calls are given as the source filed them. No cut-off for these calls is given here.
# Columns and labels:
# Leishmania infantum [1] = assay: Antileishmanial activity against Leishmania infantum MON-1 promastigotes infected in BALB/c mouse assessed as reduction in spleen parasite load at 10 mg/kg, ip administered daily for 14 days starting from 28 days post infection using gold nanoparticle incorporated compound measured post last dose by Taqman qRT-PCR analysis relative to control; assay type: functional; set-up: scale not given: the % may be the effect or the level left
# [2] = Toxicity in BALB/c mouse infected with Leishmania infantum MON-1 promastigotes assessed as swelling of kidney at 10 to 25 mg/kg, ip administered daily for 14 days starting from 28 days post infection using gold nanoparticle incorporated compound; assay type: organism-based; conditions: in vivo
# Leishmania infantum [3] = assay: Antileishmanial activity against Leishmania infantum MON-1 intracellular amastigotes infected in Swiss mouse BMDM assessed as reduction in parasite load at 14.3 uM measured after 48 hrs using gold nanoparticle incorporated compound by Giemsa staining based optical microscopic analysis relative to control; assay type: functional; set-up: scale not given: the % may be the effect or the level left
# [4] = Mutagenicity in Salmonella typhimurium TA98 at 10 to 75 uM measured after 5 days in presence of S9 fraction by Ames test; assay type: toxicity, subcellular; conditions: salmonella enterica subsp. enterica serovar typhimurium, s9, 120 h
# [5] = Half life in human liver microsomes at 1 uM in presence of NADPH by LC-MS/MS analysis; assay type: ADME, Microsome
# [6] = Drug metabolism in human liver microsomes assessed as vorinostat formation at 1 uM measured up to 60 mins by LC-MS/MS analysis; assay type: ADME, Microsome; conditions: 1 h
# [7] = Toxicity in BALB/c mouse infected with Leishmania infantum MON-1 promastigotes at 5 to 10 mg/kg, ip administered daily for 14 days starting from 28 days post infection using gold nanoparticle incorporated compound in presence of meglumine antimoniate; assay type: organism-based; conditions: in vivo
# [8] = Toxicity in Swiss mouse at 500 mg/kg administered as single dose measured after 28 days; assay type: organism-based; conditions: in vivo, 672 h
# [9] = Cytotoxicity against mouse L929 cells assessed as reduction in cell viability measured after 72 hrs by tryphan blue assay; assay type: cell-based; conditions: L929 cells
# [10] = Toxicity in BALB/c mouse infected with Leishmania infantum MON-1 promastigotes assessed as enzymatic alteration in serum at 10 to 25 mg/kg, ip administered daily for 14 days starting from 28 days post infection using gold nanoparticle incorporated compound; assay type: organism-based; conditions: in vivo
# Leishmania infantum [11] = assay: Antileishmanial activity against Leishmania infantum MON-1 promastigotes infected in BALB/c mouse assessed as reduction in spleen parasite load at 10 mg/kg, ip administered daily for 14 days starting from 28 days post infection using gold nanoparticle incorporated compound measured post last dose in presence of meglumine antimoniate by Taqman qRT-PCR analysis relative to control; assay type: functional; set-up: scale not given: the % may be the effect or the level left
# [12] = Cytotoxicity against Swiss mouse BMDM assessed as reduction in cell viability measured after 72 hrs by tryphan blue assay; assay type: cell-based; conditions: Swiss, BMDM
# BMDM [13] = assay: Cytotoxicity against Swiss mouse BMDM assessed as reduction in cell viability at 14.3 uM measured after 72 hrs using gold nanoparticle incorporated compound by tryphan blue assay; assay type: cell-based
# BMDM [14] = assay: Cytotoxicity against Swiss mouse BMDM assessed as reduction in cell viability at 3.21 uM measured after 72 hrs using PLGA nanoparticle incorporated compound by tryphan blue assay; assay type: cell-based
# [15] = Sub-acute toxicity in Swiss mouse at 25 to 200 mg/kg administered as for 14 days and measured on day 28; assay type: organism-based; conditions: in vivo, 336 h
# [16] = Toxicity in BALB/c mouse infected with Leishmania infantum MON-1 promastigotes assessed as swelling of kidney at 10 to 25 mg/kg, ip administered daily for 14 days starting from 28 days post infection using PLGA nanoparticle incorporated compound; assay type: organism-based; conditions: in vivo
# Leishmania infantum [17] = assay: Antileishmanial activity against Leishmania infantum MON-1 promastigotes infected in BALB/c mouse assessed as reduction in spleen parasite load at 10 mg/kg, ip administered daily for 14 days starting from 28 days post infection using PLGA nanoparticle incorporated compound measured post last dose by Taqman qRT-PCR analysis; assay type: functional, organism-based
# [18] = Toxicity in BALB/c mouse infected with Leishmania infantum MON-1 promastigotes assessed as swelling of spleen at 10 to 25 mg/kg, ip administered daily for 14 days starting from 28 days post infection using PLGA nanoparticle incorporated compound; assay type: organism-based; conditions: in vivo
# [19] = Toxicity in BALB/c mouse infected with Leishmania infantum MON-1 promastigotes assessed as biochemical alteration in serum at 10 to 25 mg/kg, ip administered daily for 14 days starting from 28 days post infection using gold nanoparticle incorporated compound; assay type: organism-based; conditions: in vivo
# Leishmania infantum [20] = assay: Antileishmanial activity against Leishmania infantum MON-1 promastigotes infected in BALB/c mouse assessed as reduction in spleen parasite load at 25 mg/kg, ip administered daily for 14 days starting from 28 days post infection using PLGA nanoparticle incorporated compound measured post last dose by Taqman qRT-PCR analysis relative to control; assay type: functional; set-up: scale not given: the % may be the effect or the level left
# Leishmania infantum [21] = assay: Antileishmanial activity against Leishmania infantum MON-1 promastigotes infected in BALB/c mouse assessed as reduction in liver parasite load at 25 mg/kg, ip administered daily for 14 days starting from 28 days post infection using PLGA nanoparticle incorporated compound measured post last dose by Taqman qRT-PCR analysis relative to control; assay type: functional; set-up: scale not given: the % may be the effect or the level left
# Cytochrome P450 2D6 = Cytochrome P450 2D6 (Homo sapiens, UniProt P10635); assay: Inhibition of CYP2D6 in human liver microsomes using dextromethorphan as substrate measured after 30 mins by LC-MS/MS analysis; assay type: ADME
# Cytochrome P450 2D6, sequence (P10635 whole entry): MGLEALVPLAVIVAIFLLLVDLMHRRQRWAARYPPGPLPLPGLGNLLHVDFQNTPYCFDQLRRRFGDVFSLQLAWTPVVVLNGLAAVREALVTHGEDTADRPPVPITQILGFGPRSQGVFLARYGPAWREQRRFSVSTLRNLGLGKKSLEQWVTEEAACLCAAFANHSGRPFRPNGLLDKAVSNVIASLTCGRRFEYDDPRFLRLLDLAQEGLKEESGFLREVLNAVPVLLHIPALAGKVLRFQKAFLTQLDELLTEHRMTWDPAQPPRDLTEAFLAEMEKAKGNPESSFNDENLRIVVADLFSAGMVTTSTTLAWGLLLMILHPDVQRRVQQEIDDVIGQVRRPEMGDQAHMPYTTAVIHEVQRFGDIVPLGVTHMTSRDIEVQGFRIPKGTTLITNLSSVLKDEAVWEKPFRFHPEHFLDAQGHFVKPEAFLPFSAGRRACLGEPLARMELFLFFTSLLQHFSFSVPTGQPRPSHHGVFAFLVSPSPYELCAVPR
# Cytochrome P450 2C9 = Cytochrome P450 2C9 (Homo sapiens, UniProt P11712); assay: Inhibition of CYP2C9 in human liver microsomes using diclofenac as substrate measured after 45 mins by LC-MS/MS analysis; assay type: ADME
# Cytochrome P450 2C9, sequence (P11712 whole entry): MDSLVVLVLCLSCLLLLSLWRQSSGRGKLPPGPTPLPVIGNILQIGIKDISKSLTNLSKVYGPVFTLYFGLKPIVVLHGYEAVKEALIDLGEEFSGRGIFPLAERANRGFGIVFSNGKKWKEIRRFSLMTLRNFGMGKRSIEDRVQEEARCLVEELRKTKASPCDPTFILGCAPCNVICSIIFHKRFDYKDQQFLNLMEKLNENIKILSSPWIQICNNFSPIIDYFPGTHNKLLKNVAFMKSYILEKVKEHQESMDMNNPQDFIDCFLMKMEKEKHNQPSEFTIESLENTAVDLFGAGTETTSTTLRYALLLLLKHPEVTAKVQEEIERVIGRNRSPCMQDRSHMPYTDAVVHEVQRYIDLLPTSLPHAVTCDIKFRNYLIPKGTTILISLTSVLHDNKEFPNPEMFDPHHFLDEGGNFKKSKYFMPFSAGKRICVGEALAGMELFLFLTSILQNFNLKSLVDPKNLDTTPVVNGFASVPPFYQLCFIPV
# [22] = Toxicity in BALB/c mouse infected with Leishmania infantum MON-1 promastigotes assessed as weight loss at 10 to 25 mg/kg, ip administered daily for 14 days starting from 28 days post infection using PLGA nanoparticle incorporated compound; assay type: organism-based; conditions: in vivo
# Leishmania major = assay: Antileishmanial activity against Leishmania major MON-4 intracellular amastigotes; assay type: functional, organism-based; conditions: Leishmania major, MON-4
# [23] = Toxicity in BALB/c mouse infected with Leishmania infantum MON-1 promastigotes assessed as enzymatic alteration in plasma at 10 to 25 mg/kg, ip administered daily for 14 days starting from 28 days post infection using gold nanoparticle incorporated compound; assay type: organism-based; conditions: in vivo
smiles,measurement,setting,value
O=C(CCCCCCC(=O)Nc1ccccc1)NOC(c1ccccc1)(c1ccccc1)c1ccccc1,Activity,Leishmania infantum [1],86%
same,Activity,[2],Non-Toxic
same,Activity,Leishmania infantum [3],71%
same,Activity,[4],Non-Toxic
same,half-life at 1 µM,[5],8.7 min
same,Drug metabolism,[6],Metabolite_Notdetected
same,Activity,[7],Non-Toxic
same,Activity,[8],Non-Toxic
same,CC50 at 72 h,[9],> 100 µM
same,Activity,[10],Non-Toxic
same,Activity,Leishmania infantum [11],92%
same,CC50 at 72 h,[12],> 100 µM
same,Activity,BMDM [13],Non-Toxic
same,Activity,BMDM [14],Non-Toxic
same,Activity,[15],Non-Toxic
same,Activity,[16],Non-Toxic
same,Activity,Leishmania infantum [17],inactive
same,Activity,[18],Non-Toxic
same,Activity,[19],Non-Toxic
same,Activity,Leishmania infantum [20],70%
same,Activity,Leishmania infantum [21],60%
same,IC50,Cytochrome P450 2D6,> 86.2 µM
same,IC50,Cytochrome P450 2C9,2.52 µM
same,Activity,[22],Non-Toxic
same,IC50,Leishmania major,1 µM
same,Activity,[23],Non-Toxic
